Data taken from patent US10238667B2, “Vitamin D receptor/SMAD genomic circuit gates fibrotic response” (Salk Institute for Biological Studies, priority 2013, dated 2019).

System: primary rat HSCs
Assay: Microarray expression profiling of TGFβ1 and TGFβ1+1,25(OH)2D3-treated HSCs
Format: cell-based
From the text: VDR Signaling Suppresses TGFβ-induced Pro-Fibrotic Genes. […] Euclidean clustering of both rows and columns using log2 transformed microarray expression data, n=2 per treatment group. […] Data represents the mean±SEM of at least three independent experiments performed in triplicate. Asterisks denote statistically significant differences (Student's unpaired t-test, *p<0.05, **p<0.01). HSCs were isolated from 10-week old male C57BL/6J mice and Wistar rats by in situ pronase, collagenase perfusion and single-step Histogenz gradient as previously reported (Hendriks et al., 1985; Knook et al., 1982). Isolated HSCs were cultured in DMEM (Mediatech) containing 20% FBS (Hyclone) on 6-well plates for 40 hours prior to end-point assays. Total RNA from primary rat or mouse HSCs was isolated using the RNeasy mini kit (Qiagen) according to standard protocols. RNA integrity and quality was assessed using the Agilent Bioanalyzer and prepared for hybridization to Illumina rat or mouse gene expression arrays according to standard Illumina protocols. Feature extraction was performed using the Illumina GenomeStudio software. Normalization and identification of differentially expressed genes from biological duplicates was performed using […] at http://sasquatch.ucsd.edu/vampire/.

C=C1/C(=C\C=C2/CCC[C@]3(C)C([C@H](C)CCCC(C)(C)O)CC[C@@H]23)C[C@@H](O)C[C@@H]1O (stereo partly drawn) [1,25(OH)2D3, 1α,25 dihydroxyvitamin D3]
TGFβ1 induced genes (1,25(OH)2D3 co-treatment with TGFβ1): considerable repression | Mmp13 VitD + TGF β Avg Signal (TGFβ1 1 ng/ml + 1,25(OH)2D3 100 nM, 24 h, Control 150.8, TGFβ 202.4): 180.0 | Col4a2 VitD + TGF β Avg Signal (TGFβ1 1 ng/ml + 1,25(OH)2D3 100 nM, 24 h, Control 162.6, TGFβ 225.3): 166.2 | Itga7 VitD + TGF β Avg Signal (TGFβ1 1 ng/ml + 1,25(OH)2D3 100 nM, 24 h, Control 170.2, TGFβ 202.7): 161.9 | Col16a1 VitD + TGF β Avg Signal (TGFβ1 1 ng/ml + 1,25(OH)2D3 100 nM, 24 h, Control 175.4, TGFβ 237.2): 173.3 | Col7a1 VitD + TGF β Avg Signal (TGFβ1 1 ng/ml + 1,25(OH)2D3 100 nM, 24 h, Control 185.8, TGFβ 229.6): 190.3 | Itga2 VitD + TGF β Avg Signal (TGFβ1 1 ng/ml + 1,25(OH)2D3 100 nM, 24 h, Control 188.5, TGFβ 257.9): 204.2 | LOC366205 VitD + TGFbeta AVG signal (TGFβ1 1 ng/ml + 1,25(OH)2D3 100 nM, 24 h, Control 193.2, TGFβ 926.6): 140.7 | Tgfb3 VitD + TGF β Avg Signal (TGFβ1 1 ng/ml + 1,25(OH)2D3 100 nM, 24 h, Control 226.4, TGFβ 288.5): 178.6 | LOC499272 VitD + TGFbeta AVG signal (TGFβ1 1 ng/ml + 1,25(OH)2D3 100 nM, 24 h, Control 234.2, TGFβ 620): 140.2 | LOC497796 VitD + TGFbeta AVG signal (TGFβ1 1 ng/ml + 1,25(OH)2D3 100 nM, 24 h, Control 240.8, TGFβ 4341): 859 | Col15a1 VitD + TGF β Avg Signal (TGFβ1 1 ng/ml + 1,25(OH)2D3 100 nM, 24 h, Control 257.9, TGFβ 616.4): 396.9 | Ly49si1 VitD + TGFbeta AVG signal (TGFβ1 1 ng/ml + 1,25(OH)2D3 100 nM, 24 h, Control 261.1, TGFβ 622.8): 134.7 | Tgfbr1 VitD + TGF β Avg Signal (TGFβ1 1 ng/ml + 1,25(OH)2D3 100 nM, 24 h, Control 277.1, TGFβ 365.1): 331.9 | Mmp7 VitD + TGF β Avg Signal (TGFβ1 1 ng/ml + 1,25(OH)2D3 100 nM, 24 h, Control 277.3, TGFβ 469.3): 164.9 | LOC499100 VitD + TGFbeta AVG signal (TGFβ1 1 ng/ml + 1,25(OH)2D3 100 nM, 24 h, Control 281.2, TGFβ 594.6): 154.4 | LOC305269 VitD + TGFbeta AVG signal (TGFβ1 1 ng/ml + 1,25(OH)2D3 100 nM, 24 h, Control 288.8, TGFβ 687.8): 170.6 | Tgfbr2 VitD + TGF β Avg Signal (TGFβ1 1 ng/ml + 1,25(OH)2D3 100 nM, 24 h, Control 289.0, TGFβ 347.6): 358.9 | Stab1_predict VitD + TGFbeta AVG signal (TGFβ1 1 ng/ml + 1,25(OH)2D3 100 nM, 24 h, Control 303.7, TGFβ 1141.2): 204.7 | Mmp19 VitD + TGF β Avg Signal (TGFβ1 1 ng/ml + 1,25(OH)2D3 100 nM, 24 h, Control 319.6, TGFβ 516.3): 308.7 | Cdh1 VitD + TGFbeta AVG signal (TGFβ1 1 ng/ml + 1,25(OH)2D3 100 nM, 24 h, Control 337.9, TGFβ 553.9): 126.8 | Dcir2 VitD + TGFbeta AVG signal (TGFβ1 1 ng/ml + 1,25(OH)2D3 100 nM, 24 h, Control 426.1, TGFβ 842.9): 184.9 | Cysltr1 VitD + TGFbeta AVG signal (TGFβ1 1 ng/ml + 1,25(OH)2D3 100 nM, 24 h, Control 429.3, TGFβ 801.8): 183.5 | LOC501570 VitD + TGFbeta AVG signal (TGFβ1 1 ng/ml + 1,25(OH)2D3 100 nM, 24 h, Control 429.6, TGFβ 887.6): 192.5 | Tmem26_pred VitD + TGFbeta AVG signal (TGFβ1 1 ng/ml + 1,25(OH)2D3 100 nM, 24 h, Control 457.8, TGFβ 912.3): 237.3 | Pirb VitD + TGFbeta AVG signal (TGFβ1 1 ng/ml + 1,25(OH)2D3 100 nM, 24 h, Control 462.9, TGFβ 913.7): 171.1 | LOC366608 VitD + TGFbeta AVG signal (TGFβ1 1 ng/ml + 1,25(OH)2D3 100 nM, 24 h, Control 469.9, TGFβ 892.8): 203.6 | Col1a1 VitD + TGF β Avg Signal (TGFβ1 1 ng/ml + 1,25(OH)2D3 100 nM, 24 h, Control 474.2, TGFβ 1429.1): 557.9 | Loxl2 VitD + TGF β Avg Signal (TGFβ1 1 ng/ml + 1,25(OH)2D3 100 nM, 24 h, Control 495.5, TGFβ 966.5): 597.0 | Timp2 VitD + TGF β Avg Signal (TGFβ1 1 ng/ml + 1,25(OH)2D3 100 nM, 24 h, Control 500.7, TGFβ 913.0): 751.7 | Col3a1 VitD + TGF β Avg Signal (TGFβ1 1 ng/ml + 1,25(OH)2D3 100 nM, 24 h, Control 513.9, TGFβ 965.1): 287.6 | Col6a3 VitD + TGF β Avg Signal (TGFβ1 1 ng/ml + 1,25(OH)2D3 100 nM, 24 h, Control 526.5, TGFβ 848.2): 442.6 | Loxl1 VitD + TGF β Avg Signal (TGFβ1 1 ng/ml + 1,25(OH)2D3 100 nM, 24 h, Control 537.2, TGFβ 1045.1): 560.1 | Ly49si2 VitD + TGFbeta AVG signal (TGFβ1 1 ng/ml + 1,25(OH)2D3 100 nM, 24 h, Control 538.9, TGFβ 1177): 256 | LOC361699 VitD + TGFbeta AVG signal (TGFβ1 1 ng/ml + 1,25(OH)2D3 100 nM, 24 h, Control 557.1, TGFβ 1013.7): 263.7 | Mmp10 VitD + TGF β Avg Signal (TGFβ1 1 ng/ml + 1,25(OH)2D3 100 nM, 24 h, Control 561.7, TGFβ 1042.3): 764.6 | Col8a1 VitD + TGF β Avg Signal (TGFβ1 1 ng/ml + 1,25(OH)2D3 100 nM, 24 h, Control 574.2, TGFβ 1285.9): 773.5 | Ccl12_predicte VitD + TGFbeta AVG signal (TGFβ1 1 ng/ml + 1,25(OH)2D3 100 nM, 24 h, Control 597, TGFβ 1047.9): 191.1 | Col5a1 VitD + TGF β Avg Signal (TGFβ1 1 ng/ml + 1,25(OH)2D3 100 nM, 24 h, Control 611.1, TGFβ 1418.9): 673.0 | LOC304349 VitD + TGFbeta AVG signal (TGFβ1 1 ng/ml + 1,25(OH)2D3 100 nM, 24 h, Control 664, TGFβ 1503.8): 211.1 | Tgfb2 VitD + TGF β Avg Signal (TGFβ1 1 ng/ml + 1,25(OH)2D3 100 nM, 24 h, Control 814.7, TGFβ 1308.4): 388.0 | LOC498751 VitD + TGFbeta AVG signal (TGFβ1 1 ng/ml + 1,25(OH)2D3 100 nM, 24 h, Control 827.8, TGFβ 2611.8): 516.6 | Emr1 VitD + TGFbeta AVG signal (TGFβ1 1 ng/ml + 1,25(OH)2D3 100 nM, 24 h, Control 831.7, TGFβ 1893.5): 319.1 | LOC502904 VitD + TGFbeta AVG signal (TGFβ1 1 ng/ml + 1,25(OH)2D3 100 nM, 24 h, Control 858.7, TGFβ 1425.7): 213.6 | Itga5 VitD + TGF β Avg Signal (TGFβ1 1 ng/ml + 1,25(OH)2D3 100 nM, 24 h, Control 880.0, TGFβ 1227.3): 1158.1 | Cacnb3 VitD + TGFbeta AVG signal (TGFβ1 1 ng/ml + 1,25(OH)2D3 100 nM, 24 h, Control 906.9, TGFβ 2511.6): 415.9 | Bmp2 VitD + TGFbeta AVG signal (TGFβ1 1 ng/ml + 1,25(OH)2D3 100 nM, 24 h, Control 954.6, TGFβ 1628.6, listed as VitD): 305 | Gas7 VitD + TGFbeta AVG signal (TGFβ1 1 ng/ml + 1,25(OH)2D3 100 nM, 24 h, Control 1039.2, TGFβ 4083.5): 832.8 | Slamf9_predic VitD + TGFbeta AVG signal (TGFβ1 1 ng/ml + 1,25(OH)2D3 100 nM, 24 h, Control 1044.7, TGFβ 1762.9): 417.9 | Itga4 VitD + TGF β Avg Signal (TGFβ1 1 ng/ml + 1,25(OH)2D3 100 nM, 24 h, Control 1128.4, TGFβ 1464.4): 380.6 | LOC498741 VitD + TGFbeta AVG signal (TGFβ1 1 ng/ml + 1,25(OH)2D3 100 nM, 24 h, Control 1156.2, TGFβ 1908.8): 314.1 | Hod VitD + TGFbeta AVG signal (TGFβ1 1 ng/ml + 1,25(OH)2D3 100 nM, 24 h, Control 1297, TGFβ 2520.2): 495.9 | LOC502907 VitD + TGFbeta AVG signal (TGFβ1 1 ng/ml + 1,25(OH)2D3 100 nM, 24 h, Control 1399.7, TGFβ 2318.7): 241.9 | Ptprc VitD + TGFbeta AVG signal (TGFβ1 1 ng/ml + 1,25(OH)2D3 100 nM, 24 h, Control 1582.3, TGFβ 2387): 569.1 | Itgam VitD + TGF β Avg Signal (TGFβ1 1 ng/ml + 1,25(OH)2D3 100 nM, 24 h, Control 1689.7, TGFβ 2297.0): 658.0 | Col4a1 VitD + TGF β Avg Signal (TGFβ1 1 ng/ml + 1,25(OH)2D3 100 nM, 24 h, Control 1708.1, TGFβ 2261.0): 1315.2 | Chst1_predict VitD + TGFbeta AVG signal (TGFβ1 1 ng/ml + 1,25(OH)2D3 100 nM, 24 h, Control 1813.1, TGFβ 4284.5): 337.6 | Dsipi VitD + TGFbeta AVG signal (TGFβ1 1 ng/ml + 1,25(OH)2D3 100 nM, 24 h, Control 1943.2, TGFβ 4575.5): 1152 | Ccr5 VitD + TGFbeta AVG signal (TGFβ1 1 ng/ml + 1,25(OH)2D3 100 nM, 24 h, Control 2069.5, TGFβ 4680.9): 362.3 | Itgav VitD + TGF β Avg Signal (TGFβ1 1 ng/ml + 1,25(OH)2D3 100 nM, 24 h, Control 2145.1, TGFβ 4760.5): 2417.2 | Mmp9 VitD + TGF β Avg Signal (TGFβ1 1 ng/ml + 1,25(OH)2D3 100 nM, 24 h, Control 2153.3, TGFβ 4197.3): 2676.4 | Col5a2 VitD + TGF β Avg Signal (TGFβ1 1 ng/ml + 1,25(OH)2D3 100 nM, 24 h, Control 2181.0, TGFβ 3452.2): 1696.8 | Lox VitD + TGF β Avg Signal (TGFβ1 1 ng/ml + 1,25(OH)2D3 100 nM, 24 h, Control 2260.8, TGFβ 7481.1): 4219.9 | LOC499356 VitD + TGFbeta AVG signal (TGFβ1 1 ng/ml + 1,25(OH)2D3 100 nM, 24 h, Control 2562.8, TGFβ 3888.4): 352.7 | Fchsd2_predic VitD + TGFbeta AVG signal (TGFβ1 1 ng/ml + 1,25(OH)2D3 100 nM, 24 h, Control 2632.5, TGFβ 7594.5): 1565 | Tgfb1 VitD + TGF β Avg Signal (TGFβ1 1 ng/ml + 1,25(OH)2D3 100 nM, 24 h, Control 2922.5, TGFβ 5480.4): 4391.0 | Ms4a4a_predi VitD + TGFbeta AVG signal (TGFβ1 1 ng/ml + 1,25(OH)2D3 100 nM, 24 h, Control 3327, TGFβ 14356): 810.7 | Pcsk1 VitD + TGFbeta AVG signal (TGFβ1 1 ng/ml + 1,25(OH)2D3 100 nM, 24 h, Control 3330.8, TGFβ 6754.6): 912.4 | Ms4a6a_predi VitD + TGFbeta AVG signal (TGFβ1 1 ng/ml + 1,25(OH)2D3 100 nM, 24 h, Control 3823.9, TGFβ 7658.8): 1696
